From the NIST ThermoML archive (doi:10.1021/je5000296)
± gives the expanded uncertainty stated by the source.

Conditions: Liquid, Ebulliometric method (Recirculating still)

vapor or sublimation pressure (390.48 K) [kPa] | Structure (SMILES) | vapor or sublimation pressure (399.15 K) [kPa]
101.3 ± 0.91 | CCCCO [butan-1-ol] | –
– | CCCCOC(C)=O [butyl ethanoate] | 101.3 ± 0.91
